According to patent US20250129067A1 (Progentos Therapeutics, Inc., priority 2021, published 2025):
Where two headings read alike, the source gives them in different places.

Experiments:
[1] = test system: newly generated, GPR17+, oligodendrocytes; experiment: in vivo GPR17 assay / in vivo OPC differentiation assay (Examples 242, 245); conditions: healthy mice, single oral dose of 0.1, 0.33, 1 or 3.3 mg/kg, versus vehicle, n=8 mice per group
Protocol: FIGS. 2A and 2B provide representative immunohistochemistry images comparing the in vivo generation of new oligodendrocytes in the brains of mice treated with one of the following: (i) vehicle control (FIG. 2A), or (ii) PDGFRα inhibitor (Compound 6) (PO 5 mg/kg; single dose) (FIG. 2B). The newly generated oligodendrocytes are identified based on upregulation of GPR 17 expression.
Healthy mice received a single oral dose of 0.1 (“2”), 0.33 (“3”), 1 (“4”), or 3.3 (“5”) mg/kg of PDGFRα inhibitor (Compound 26). Control mice received a vehicle control (“1”). The number of newly generated, GPR17+, oligodendrocytes/mm^2 was quantitated via automated image analysis from sections spanning the anterio-posterior axis of the brain. […]
As described elsewhere in the present disclosure, some exemplary PDGFRα inhibitors of the present disclosure are capable of have greater therapeutic effect than inhibitors known in the art, e.g., when an inhibitor known in the art and an exemplary inhibitor provided herein are assayed against a vehicle control. […] For example, in some aspects, a PDGFRα inhibitor of the present disclosure can achieve greater than 2-fold increase in GPR17 expression compared to a vehicle control at a dose of less than 50 mg/kg, as measured using an in vivo GPR17 assay (such as that described in Example 242). […]

[2] = test system: Oligodendrocyte progenitor cells (OPCs); experiment: In vitro OPC differentiation assay, GPR17 expression (immunocytochemistry); conditions: 72 hours, fold change over vehicle; for GPR17 Fold Induction (Over Vehicle; 3 μM): 3 μM (10× concentration, final 0.3 μM)
[3] = test system: Oligodendrocyte progenitor cells (OPCs); experiment: In vitro OPC differentiation assay, MBP expression (immunocytochemistry); conditions: 72 hours of treatment; fold change over vehicle
Protocol: (§1) Cortices from postnatal day (P) 1-3 rats were dissected and collected into ice cold Hank's Balanced Salt Solution (HBSS). […] Briefly, the cortical cell suspension was centrifuged and washed with buffer (0.5% BSA in PBS) and labeled with Anti-A2B5 MicroBeads (10 μL beads per 1×10^7 cells) for 15 minutes at 4° C. Following the incubation, cells were washed once with BSA buffer to remove unlabeled beads. A2B^5 positive cells were eluted on the column using the AutoMACS® (Miltenyi, as per manufacturer's protocol using “possel-s” program). Eluted cells were further washed twice with OPC growth media. Cell count was performed using Countess III cell counter (ThermoFisher; AMQAX2000) and cells were plated.
(§2) A2B5+ OPCs were plated in poly-d-lysine (PDL) coated T75 flask at a density of ˜3 million cells per flask. […] TrypLE was normalized by adding 10 mL growth media and cells were centrifuged at 1400 rpm for 10 minutes. […] The plates were allowed to sit at room temperature for 15 minutes to ensure proper dispersion of cells in a well. The plates were then transferred to the incubator (37° C.; 5% CO2).
(§3) Cells were then incubated for 72 hours at 37° C., 5% CO2 before immunostaining for MBP marker expression.
(§4) Following 72 hours of treatment, cells were fixed with 4% paraformaldehyde for 15 minutes then washed three times in DPBS. Prior to staining, cells were blocked for 15 minutes in 10% normal goat serum containing 1% BSA and 0.1% Triton X-100 in DPBS. Primary antibody (MBP @ 1:2000; Abcam AB7349) was applied to cells overnight at 4° C. in incubation solution containing 1% normal goat serum, 1% BSA, and 0.1% Triton X-100 in DPBS.
(§5) The number of differentiated MBP+ cells was normalized to the total nuclei count and percent differentiated MBP+ cells were reported.

[4] = test system: GPR17+ cells (newly differentiated oligodendrocytes); experiment: In vivo OPC differentiation, GPR17+ cells in brain; conditions: Mus musculus, po, 24 h, read-out: GPR17 Fold Induction (Over Vehicle)
[5] = target: PDGFRα (Homo sapiens (Human), UniProt P16234); experiment: PDGFRα kinase enzyme assay (Promega PDGFRα Kinase Enzyme System, ADP-Glo); format: biochemical; conditions: 150 uM ATP
In short: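 Read-out was ADP-Glo: remaining ATP depleted, ADP converted to luminescence and compared with a standard curve.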

[6] = test system: NG2+ cells (OPCs) in brain; experiment: OPC population recovery after administration of PDGFRα inhibitor, NG2 staining; format: in vivo, C57BL/6 mice; conditions: mice
Protocol: OPCs first appear during embryonic organogenesis and continue to exist in adult brain (in both gray and white matter), maintaining their population through self-renewal. To assess whether PDGFRα inhibitors described herein have an effect on the maintenance of the OPC population when administered in vivo, two different PDGFRα inhibitors were tested, each having a different in vivo half-life. Then, the expression of NG2 (marker for OPCs) was assessed in the brains of the treated mice at various time points after treatment as described in more detail below.
The mice received a single administration of either Compound 6 (10 mg/kg) or Compound 78 (5 mg/kg). Control animals received a vehicle control. Then, at days 3, 6, 9, or 12 days after dosing, some of the animals from each of the treatment groups were sacrificed and their brains were harvested for analysis.
The floating sections were incubated with a rabbit anti-NG2 antibody (EMD Millipore, catalog no. AB5320) (i.e., the primary antibody) diluted in blocking solution (to a concentration of 1:1000) overnight at room temperature on a shaker.
NG2 staining was assessed by an observer blinded to the treatment condition and given a score from 1 to 5, with 5 representing the level of OPC population observed in naïve animals that had not received an exemplar PDGFRα inhibitor.

[7] = test system: GPR17+ cells in brain tissue; experiment: Differentiation of newly generated OPCs after a second dose, GPR17+ cells; format: in vivo, C57BL/6 mice
Protocol: Further to the results provided above in Example 244, it was assessed whether OPCs that are newly generated (i.e., through self-renewal) after PDGFRα inhibitor administration have the ability to differentiate into mature oligodendrocytes. As described below, testing this made use of the transient characteristics of GPR17 expression. […] Therefore, the effects of a first and second dose of compound can be distinguished from one another. In these experiments, mice received a first dose of either vehicle or compound, which differentiated the OPCs and reduced the size of the OPC population. Five, fourteen, or twenty-one days later, mice received a second dose of compound and the response to the second dose was measured. These intervals tested whether newly generated OPCs could respond to compound and differentiate into oligodendrocytes. It also tested what the minimum interval was between two doses to get a nearly full response from the second dose.
Mice were treated with a vehicle control and/or Compound 78. The specific treatment groups were as follows: (1) single dose of the vehicle control on day 1; (2) a dose of the vehicle control on day 0 and a dose of compound 78 on day 5; (3) a first dose of compound 78 on day 0 and a second dose of compound 78 on day 5; (4) a first dose of compound 78 on day 0 and a second dose of compound 78 on day 14; and (5) a first dose of compound 78 on day 0 and a second dose of compound 78 on day 21. As described in the above examples, the animals were sacrificed three days after the last dose and their brains were harvested for analysis. GPR17+ expression in the brain tissue was assessed as described herein. Then, the mice were sacrificed 3 days after the second dose and the brains were harvested for analysis.
Histology was performed as described in Example 244 using reagents described in Table xx (below).
Images obtained from the histology preparations were analyzed using a custom protocol implemented with Visiopharm software to count GPR17+ cells.

[8] = In vivo half-life; conditions: comparison in words
[9] = test system: Oligodendrocyte progenitor cells (OPCs)
[10] = test system: Oligodendrocyte progenitor cells (OPCs); remark: listed apart in the source
Protocol: as §1, §2, §3, §4, §5

[11] = test system: GPR17+ cells (newly differentiated oligodendrocytes); conditions: mouse
[12] = 11-point dose response, 10,000 nM to 0.169 nM, BLQ = below limit of quantitation, read-out: IC50 Values on PDGFRα Kinase Inhibition, IC50

Chain of PDGFRα (P16234 24-1089): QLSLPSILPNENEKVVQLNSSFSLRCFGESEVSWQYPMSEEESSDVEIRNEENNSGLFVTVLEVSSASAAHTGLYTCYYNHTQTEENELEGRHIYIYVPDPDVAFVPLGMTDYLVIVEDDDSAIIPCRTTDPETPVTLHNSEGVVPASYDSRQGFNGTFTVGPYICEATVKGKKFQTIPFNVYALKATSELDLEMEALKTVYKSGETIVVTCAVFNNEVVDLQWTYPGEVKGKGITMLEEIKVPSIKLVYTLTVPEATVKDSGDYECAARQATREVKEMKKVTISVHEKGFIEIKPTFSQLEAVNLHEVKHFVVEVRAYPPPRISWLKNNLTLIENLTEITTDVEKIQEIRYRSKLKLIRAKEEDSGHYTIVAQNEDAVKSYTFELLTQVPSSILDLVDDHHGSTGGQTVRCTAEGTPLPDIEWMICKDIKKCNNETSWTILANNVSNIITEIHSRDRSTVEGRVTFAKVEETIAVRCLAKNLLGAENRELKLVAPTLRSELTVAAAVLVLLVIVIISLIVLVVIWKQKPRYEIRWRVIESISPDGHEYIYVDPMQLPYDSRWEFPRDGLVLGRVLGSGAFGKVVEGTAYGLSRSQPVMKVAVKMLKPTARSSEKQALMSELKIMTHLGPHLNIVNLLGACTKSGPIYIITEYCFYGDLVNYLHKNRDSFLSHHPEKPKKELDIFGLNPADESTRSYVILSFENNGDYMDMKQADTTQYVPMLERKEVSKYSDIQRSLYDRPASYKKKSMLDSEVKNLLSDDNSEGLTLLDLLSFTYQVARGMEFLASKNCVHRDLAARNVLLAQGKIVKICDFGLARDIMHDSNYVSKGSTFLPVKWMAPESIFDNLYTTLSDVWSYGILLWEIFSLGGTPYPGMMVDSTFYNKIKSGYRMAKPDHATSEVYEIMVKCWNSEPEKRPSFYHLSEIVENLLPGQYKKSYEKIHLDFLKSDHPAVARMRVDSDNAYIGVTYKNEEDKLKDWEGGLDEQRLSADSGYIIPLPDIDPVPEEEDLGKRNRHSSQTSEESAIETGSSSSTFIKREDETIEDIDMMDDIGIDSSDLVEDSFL

## Cn1cc(-c2ccc3c(N4CCN(c5ncc(C(O)c6ccc(F)cc6)cn5)CC4)cnn3c2)cn1 (stereo not shown) [Compound 26, (4-fluorophenyl)(2-{4-[6-(1-methyl-1H-pyrazol-4-yl)pyrazolo[1,5-a]pyridin-3-yl]piperazin-1-yl}pyrimidin-5-yl)methanol]
[1]
  number of newly generated, GPR17+, oligodendrocytes/mm^2: dose responsive induction
[2]
  GPR17 Fold Induction (Over Vehicle; 3 μM): 13.87
[2]; 5 μM (10× concentration, final 0.5 μM)
  GPR17 Fold Induction (Over Vehicle; 5 μM): 4.97
[3]
  MBP Fold Induction (Over vehicle): 5.23
[4]
  fold induction at 3.3 mg/kg: 12.1
[5]; 11-point dose response, 10,000 nM to 0.169 nM, BLQ = below limit of quantitation
  IC50 Values on PDGFRα Kinase Inhibition, IC50 (nM): BLQ

## C[C@@H](OC(=O)N1CCN(c2cnn3cc(-c4cnn(C)c4)ccc23)CC1)c1ccc(Cl)cc1 [Compound 78, (1R)-1-(4-Chlorophenyl)ethyl 4-[6-(1-methyl-1H-pyrazol-4-yl)pyrazolo[1,5-a]pyridin-3-yl]piperazine-1-carboxylate]
[6]; single administration 5 mg/kg
  Time post administration until number of OPCs in the brain was comparable to control animals: about 9 days
[6]; single administration, Compound 78 compared to Compound 6
  OPC population recovery after 6 days: greater recovery
[2]
  GPR17 Fold Induction (Over Vehicle; 3 μM): 13.71
[7]; Group 2: vehicle on day 0, first dose of compound on day 5, sacrificed three days after the last dose
  GPR17+ cells within the brain tissue: significant numbers of GPR17+ cells
[7]; Group 3: two doses at a dosing interval of 5 days, compared to dosing intervals of 14 days and 21 days
  GPR17+ cells after second dose: significantly fewer GPR17+ cells
[7]; mice, two separate doses
  Dosing interval necessary to see any effect on oligodendrocyte generation from the second administration: greater than 5 days
[3]
  MBP Fold Induction (Over vehicle): 10.93
[4]
  fold induction at 3 mg/kg: 14.9
[8]
  Half-life: shorter half-life than Compound 6
[5]; 20 ng purified PDGFRα, Poly (Glu4Tyr1) substrate, two hours, 11-point dose response, read-out: IC50 Values on PDGFRα Kinase Inhibition
  IC50: < 1000 nM
[5]; [12]
  IC50: < 0.17 nM

## 3-[4-(5-benzylpyrimidin-2-yl)piperazin-1-yl]-6-(1-methyl-1H-pyrazol-3-yl)pyrazolo[1,5-a]pyridine [Compound 38]
[9]
  GPR17 Fold Induction (Over Vehicle; 3 μM): 7.04
  GPR17 Fold Induction (Over Vehicle; 5 μM): 6.02
[5]; [12]
  IC50: 4750 nM
[10]
  MBP Fold Induction (Over vehicle): 1.41

## CN(C)CCC=C1c2ccccc2COc2ccccc21 [Doxepin]
[11]
  In vivo GPR17+ cells, GPR17 Fold Induction (Over Vehicle): 1.36
